Patent US8741871B2, “Trehalose compound, method for producing same, and pharmaceutical product containing the compound” (priority 2008, dated 2014)

Key:
rabbit neutrophils [1] = test: Measurement of amount of active oxygen released from rabbit neutrophils; type: cell-based; conditions: 50 μM, 2 hours; FIG. 3
Description: 5 ml of the ACD solution was placed in a 20-ml syringe (injection needle [Nipro]), so that the inside of the syringe was entirely rinsed therewith. 20 ml of blood was collected from the central auricular artery of a rabbit using the syringe, and the collected blood was gently shaken upside down. Thereafter, the blood was dispensed into three centrifuge tubes (15 ml type; Falcon), and each tube was then subjected to centrifugation at 4° C. at 1,500 rpm for 5 minutes. Thereafter, the supernatant was recovered into a centrifuge tube (50 ml type; Falcon). A 1.2% dextran-PBS solution was added to the recovered supernatant in an amount equal the supernatant, and the obtained mixture was then gently shaken upside down. Thereafter, the mixture was left at a room temperature for 30 minutes or more. The emergence of an interface was confirmed, and the supernatant was placed in a new centrifuge tube (50 ml type; Falcon). […]
The influence of the test compound on the release of active oxygen from rabbit neutrophils was measured by the following procedures.
Neutrophils (1.0×10^5 cells/100 μl) were plated on a 96-well plate (Falcon). […] The obtained mixture was incubated at 37° C. for 2 hours, and the amount of active oxygen released was measured using a fluorescence measurement apparatus (Ex: 485 nm, Em: 535 nm).

rabbit neutrophils [2] = type: cell-based
[3] = test system: Welch bacillus toxin (recombinant α-toxin); conditions: in vivo, ip
[4] = test system: Pseudomonas aeruginosa (Fhu-071115 strain); type: in vivo
Description: As a test compound, 1 mg of the compound synthesized by the method described in Production Example α-1 was weighed. An emulsion solution of the test compound was prepared in the same manner as described above.
Pseudomonas aeruginosa (Fhu-071115 strain) derived from patients was used, and it was prepared as follows.
L-broth was withdrawn with a 40-ml measuring pipette and was then added to a 200-ml flask, and the flask was then sealed with a sponge plug. At the same time, 5 ml of L-broth was added to each of two other screw-top test tubes. The thus prepared flask and screw-top test tubes were subjected to an autoclave at 121° C. for 20 minutes. After the L-broth medium had been cooled to a room temperature, Pseudomonas aeruginosa, which had been stored in an ultra low temperature freezer, was added into 40 ml of the L-broth the medium in a clean bench. The obtained mixture was shaken in an incubator overnight. Thereafter, the resultant was centrifuged at 9000 rpm for 15 minutes, and the supernatant was then removed. […] This process was carried out three times. Thereafter, 4.5 ml of sterilized normal saline solution was added to the resultant, and the mixture was then blended with the use of a Vortex mixer. The obtained solution was used as a strain stock solution. Using a 1000-fold diluted strain solution, the number of cells was counted with OneCell Counter. Thereafter, the strain stock solution was diluted to a desired concentration, and the thus diluted solution was then used in the subsequent test.
Mice were divided into two groups, and the following two types of experiments were carried out. • (A) The aforementioned emulsion solution containing the test compound (100 μg/mouse) was intraperitoneally administered to a group of three mice (ICR, 5-week-old). Three hours later, Pseudomonas aeruginosa (5.0×10^7 cells/mouse) was intraperitoneally administered to the mice. Thereafter, the condition of the mice was observed. (B) Pseudomonas aeruginosa (2.0×10^7 cells/mouse) was intraperitoneally administered to a group of three mice (ICR, 5-week-old). Three hours later, the aforementioned emulsion solution containing the test compound (100 μg/mouse) was intraperitoneally administered to the mice. Thereafter, the condition of the mice was observed.

[5] = test system: Welch bacillus (C. perfringens Type-A NCTC8237); type: in vivo; conditions: pre-administration 100 μg/mouse i.p., twenty-four hours later 5.0×10^7 CFU/mL Welch bacillus i.p.; FIG. 16
[6] = test system: breast cancer cells (FM3A cells); type: in vivo; conditions: 100 μg/mouse i.p. twenty-four hours before FM3A inoculation, nineteen days later
Description: The 100 μg/mouse test compound obtained in Example 9 (emulsion solution) was intraperitoneally administered to each mouse, and twenty-four hours later, breast cancer cells (FM3A cells) were inoculated into the abdominal cavity thereof. Nineteen days later, the body weight of each mouse was measured. In addition, the tissue sections of diaphragm, pancreas and testis were subjected to HE staining, and they were then observed under a microscope. As a result, the body weight of the breast cancer cell-inoculated mouse was increased by approximately 10 g, when compared with a control mouse, and it was observed that the mouse contained a large amount of ascites fluid.

| SMILES | action to activate the release of active oxygen from rabbit neutrophils, compared with TDCM (rabbit neutrophils [1]) | phagocytic ability of rabbit neutrophils, activity compared with TDCM (rabbit neutrophils [2]) | Number of surviving mice/number of treated mice, 2 hours later [3] | Number of surviving mice/number of treated mice, 6 hours later [3] | Number of surviving mice/number of treated mice, 12 hours later [3] | Number of surviving mice/number of treated mice, 24 hours later [3] | Number of surviving mice/number of treated mice, 48 hours later [3] | Number of surviving mice/number of treated mice, 2 hours later (Group A) ([4]; Group A: pre-administration 100 μg/mouse i.p., three hours later Pseudomonas aeruginosa 5.0×10^7 cells/mouse i.p., 2 hours later) | Number of surviving mice/number of treated mice, 4 hours later (Group A) ([4]; Group A: pre-administration 100 μg/mouse i.p., three hours later Pseudomonas aeruginosa 5.0×10^7 cells/mouse i.p., 4 hours later) | Number of surviving mice/number of treated mice, 15 hours later (Group A) ([4]; Group A: pre-administration 100 μg/mouse i.p., three hours later Pseudomonas aeruginosa 5.0×10^7 cells/mouse i.p., 15 hours later) | Number of surviving mice/number of treated mice, 24 hours later (Group A) ([4]; Group A: pre-administration 100 μg/mouse i.p., three hours later Pseudomonas aeruginosa 5.0×10^7 cells/mouse i.p., 24 hours later) | Number of surviving mice/number of treated mice, 48 hours later (Group A) ([4]; Group A: pre-administration 100 μg/mouse i.p., three hours later Pseudomonas aeruginosa 5.0×10^7 cells/mouse i.p., 48 hours later) | Number of surviving mice/number of treated mice, 2 hours later (Group B) ([4]; Group B: Pseudomonas aeruginosa 2.0×10^7 cells/mouse i.p., three hours later test compound 100 μg/mouse i.p., 2 hours later) | Number of surviving mice/number of treated mice, 4 hours later (Group B) ([4]; Group B: Pseudomonas aeruginosa 2.0×10^7 cells/mouse i.p., three hours later test compound 100 μg/mouse i.p., 4 hours later) | Number of surviving mice/number of treated mice, 15 hours later (Group B) ([4]; Group B: Pseudomonas aeruginosa 2.0×10^7 cells/mouse i.p., three hours later test compound 100 μg/mouse i.p., 15 hours later) | Number of surviving mice/number of treated mice, 24 hours later (Group B) ([4]; Group B: Pseudomonas aeruginosa 2.0×10^7 cells/mouse i.p., three hours later test compound 100 μg/mouse i.p., 24 hours later) | Number of surviving mice/number of treated mice, 48 hours later (Group B) ([4]; Group B: Pseudomonas aeruginosa 2.0×10^7 cells/mouse i.p., three hours later test compound 100 μg/mouse i.p., 48 hours later) | lethality of Welch bacillus-infected mice [5] | body weight of breast cancer cell-inoculated mouse [6] | infiltration and metastasis of the cancer cells into various organs (diaphragm, pancreas, testis) ([6]; HE staining, FIG. 20) |
| --- | --- | --- | --- | --- | --- | --- | --- | --- | --- | --- | --- | --- | --- | --- | --- | --- | --- | --- | --- | --- |
| CCCCCCCCCCC(CCCCCCCCCC)C(=O)OCC1O[C@H](O[C@H]2OC(COC(=O)C(CCCCCCCCCC)CCCCCCCCCC)[C@@H](O)C(O)C2O)C(O)C(O)[C@@H]1O (stereo partly drawn) [Example 1, 6,6′-bis-O-(2-decyldodecanoyl)-α,α′-trehalose] | approximately two times higher than the activity of TDCM | approximately 2 times | 4/4 | 4/4 | 4/4 | 3/4 | 3/4 | 3/3 | 3/3 | 2/3 | 2/3 | 2/3 | 3/3 | 3/3 | 3/3 | 1/3 | 1/3 |  |  |  |
| CCCCCCCCCC(CCCCCCCCC)CC(=O)OCC1O[C@H](O[C@H]2OC(COC(=O)CC(CCCCCCCCC)CCCCCCCCC)[C@@H](O)C(O)C2O)C(O)C(O)[C@@H]1O (stereo partly drawn) [Example 9, 6,6′-bis-O-(3-nonyldodecanoyl)-α,α′-trehalose] |  |  |  |  |  |  |  |  |  |  |  |  |  |  |  |  |  | significantly suppressed | equivalent to that of a control mouse | not observed at all |
